This test addresses T1, MAGE-A11:PCF11 interaction (GST-MAGE-A11 and FAM-PCF11_4) (Homo sapiens, UniProt P43364).
T1 construct: GST-MAGE-A11 MHD (human MAGE-A11 MHD amino acid 218-429); made in house; host or cells: E. coli BL21(DE3)
T1 sequence (P43364 218-429): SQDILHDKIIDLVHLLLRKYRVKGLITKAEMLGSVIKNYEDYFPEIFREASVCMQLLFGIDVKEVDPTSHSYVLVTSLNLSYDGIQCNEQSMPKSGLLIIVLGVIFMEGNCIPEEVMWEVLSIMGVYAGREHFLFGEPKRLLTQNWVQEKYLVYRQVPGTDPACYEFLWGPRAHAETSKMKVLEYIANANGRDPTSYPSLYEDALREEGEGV
The test can be described thus: TR-FRET primary / single point screen at 15 µM. Format: binding. An outline of the steps:
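Single-point screen at 15 µM final compound in 50 mM Tris pH 7.5, 20 mM MgCl2, 0.1 mg/ml BSA, 1 mM DTT, with 200 nM FAM-PCF11_4, 5 nM Tb-anti-GST and 5 nM GST-MAGE-A11. After 90 min at room temperature, the 520/490 nm TR-FRET ratio (340 nm excitation) gave %Inhibition against no-MAGE-A11 and DMSO controls.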

The mark [1] stands for this setting: single point TR-FRET screening of 797 quinoline compounds against MAGE-A11:PCF11.
Setting [2] is: single point TR-FRET screening of quinoline compounds against MAGE-A11:PCF11, 15 µM.

Molecules are shown by their SMILES.

Take `CCCN(CCCCNc1ccnc2cc(Cl)ccc12)Cc1ccc[nH]1` [SJ000311198]: the “percent inhibition (TR-FRET)” value under setting [1] is given as -0.9977.

`CCCN(CCCCNc1ccnc2cc(Cl)ccc12)Cc1sccc1C` [SJ000311199]: the “percent inhibition (TR-FRET)” value under setting [1] is 6.494.

With `CCCN(CCCCNc1ccnc2cc(Cl)ccc12)Cc1ccoc1` [SJ000311200], the “percent inhibition (TR-FRET)” value under setting [1] amounted to 12.3053.

Turning to `CCCN(CCCCNc1ccnc2cc(Cl)ccc12)Cc1cc(F)ccc1OC` [SJ000311202], under setting [1], the “percent inhibition (TR-FRET)” value is reported as 5.3962.

Take `CCCN(CCCCNc1ccnc2cc(Cl)ccc12)Cc1c(F)cccc1OC` [SJ000311203]: the “percent inhibition (TR-FRET)” value under setting [1] amounted to 6.844.

Take `CCCN(CCCCNc1ccnc2cc(Cl)ccc12)Cc1c[nH]c2ccccc12` [SJ000311204]: under setting [1], the “percent inhibition (TR-FRET)” value is -3.378.

Turning to `CCCN(CCCCNc1ccnc2cc(Cl)ccc12)Cc1ccccc1` [SJ000311205], the “percent inhibition (TR-FRET)” value under setting [1] turned out to be 7.684.

With `c1ccc(Oc2ccc3c(NCCCNCc4ccco4)ccnc3c2)cc1` [SJ000311206], the “percent inhibition (TR-FRET)” value under setting [2] was determined as 14.5885.

As for `COc1ccccc1Oc1ccc2c(NCCCNCc3ccco3)ccnc2c1` [SJ000311210], the “percent inhibition (TR-FRET)” value under setting [2] is recorded as 24.558.

Turning to `COc1cccc(Oc2ccc3c(NCCCNCc4ccco4)ccnc3c2)c1` [SJ000311214], the “percent inhibition (TR-FRET)” value under setting [2] worked out at 29.109.

Regarding `COc1ccc(Oc2ccc3c(NCCCNCc4ccco4)ccnc3c2)cc1` [SJ000311218], under setting [2], the “percent inhibition (TR-FRET)” value was found to be 36.2507.

In the case of `Fc1ccc(Oc2ccc3c(NCCCNCc4ccco4)ccnc3c2)cc1` [SJ000311222], under setting [2], the “percent inhibition (TR-FRET)” value is recorded as 9.365.

`Clc1ccc(Oc2ccc3c(NCCCNCc4ccco4)ccnc3c2)cc1` [SJ000311226]: the “percent inhibition (TR-FRET)” value under setting [2] was found to be 37.651.

For the compound `CN(C)c1cccc(Oc2ccc3c(NCCCNCc4ccco4)ccnc3c2)c1` [SJ000311230], the “percent inhibition (TR-FRET)” value under setting [2] is given as 63.4168.

On to `CC(C)(C)c1ccc(Oc2ccc3c(NCCCNCc4ccco4)ccnc3c2)cc1` [SJ000311234], for which, under setting [2], the “percent inhibition (TR-FRET)” value came to 57.5354.

Turning to `Fc1ccc(-c2ccc3c(NCCCNCc4ccco4)ccnc3c2)cc1` [SJ000311238], under setting [2], the “percent inhibition (TR-FRET)” value worked out at 27.4287.

On to `CC(C)CCc1ccc2c(NCCCNCc3ccco3)ccnc2c1` [SJ000311246], for which the “percent inhibition (TR-FRET)” value under setting [2] was 13.0054.

On to `c1coc(CNCCCNc2ccnc3cc(CC4CCCCC4)ccc23)c1` [SJ000311250], for which the “percent inhibition (TR-FRET)” value under setting [2] was 40.6616.

For `c1ccc(CCc2ccc3c(NCCCNCc4ccco4)ccnc3c2)cc1` [SJ000311254], under setting [2], the “percent inhibition (TR-FRET)” value was determined as 15.9461.

For the compound `CC(C)Cc1ccc2c(NCCCNCc3ccco3)ccnc2c1` [SJ000311258], the “percent inhibition (TR-FRET)” value under setting [2] came out at 8.8745.

For `c1coc(CNCCCNc2ccnc3cc(C4CCCCC4)ccc23)c1` [SJ000311262], under setting [2], the “percent inhibition (TR-FRET)” value is on record as 32.9599.

With `CCC(CC)c1ccc2c(NCCCNCc3ccco3)ccnc2c1` [SJ000311266], the “percent inhibition (TR-FRET)” value under setting [2] was found to be 24.558.

Regarding `FC(F)(F)c1cc(-c2ccc3c(NCCCNCc4ccco4)ccnc3c2)cc(C(F)(F)F)c1` [SJ000311270], under setting [2], the “percent inhibition (TR-FRET)” value is on record as 59.7059.

Regarding `c1coc(CNCCCNc2ccnc3cc(-c4cccc5ccccc45)ccc23)c1` [SJ000311274], the “percent inhibition (TR-FRET)” value under setting [2] amounted to 41.5719.

`FC(F)(F)c1ccc(-c2ccc3c(NCCCNCc4ccco4)ccnc3c2)cc1` [SJ000311278]: under setting [2], the “percent inhibition (TR-FRET)” value is given as 56.2051.

On to `c1ccc(-c2ccc3c(NCCCNCc4ccco4)ccnc3c2)cc1` [SJ000311282], for which the “percent inhibition (TR-FRET)” value under setting [2] stood at 28.689.

As to `CC(C)(C)c1ccc(-c2ccc3c(NCCCNCc4ccco4)ccnc3c2)cc1` [SJ000311286], under setting [2], the “percent inhibition (TR-FRET)” value turned out to be 73.499.

In the case of `c1coc(CNCCCNc2ccnc3cc(-c4ccc5c(c4)OCO5)ccc23)c1` [SJ000311290], the “percent inhibition (TR-FRET)” value under setting [2] stood at 30.7894.

As to `COc1ccc(-c2ccc3c(NCCCNCc4ccco4)ccnc3c2)cc1` [SJ000311294], the “percent inhibition (TR-FRET)” value under setting [2] is 7.824.

As to `FC(F)(F)c1cccc(Cc2ccc3c(NCCCNCc4ccco4)ccnc3c2)c1` [SJ000311298], the “percent inhibition (TR-FRET)” value under setting [2] is reported as 27.0086.

Regarding `N#Cc1ccc(Cc2ccc3c(NCCCNCc4ccco4)ccnc3c2)cc1` [SJ000311302], the “percent inhibition (TR-FRET)” value under setting [2] is listed as 20.4271.

On to `c1ccc(Cc2ccc3c(NCCCNCc4ccco4)ccnc3c2)cc1` [SJ000311306], for which the “percent inhibition (TR-FRET)” value under setting [2] is 64.537.

For `COc1cc(Cc2ccc3c(NCCCNCc4ccco4)ccnc3c2)cc(OC)c1` [SJ000311310], the “percent inhibition (TR-FRET)” value under setting [2] is 23.7879.

Regarding `Clc1cccc(Cl)c1Cc1ccc2c(NCCCNCc3ccco3)ccnc2c1` [SJ000311314], under setting [2], the “percent inhibition (TR-FRET)” value came to 32.3998.

As to `Cc1cc(C)cc(Cc2ccc3c(NCCCNCc4ccco4)ccnc3c2)c1` [SJ000311318], the “percent inhibition (TR-FRET)” value under setting [2] is given as 39.3055.

Turning to `Fc1ccc(Cc2ccc3c(NCCCNCc4ccco4)ccnc3c2)c(Cl)c1` [SJ000311322], the “percent inhibition (TR-FRET)” value under setting [2] was determined as 24.7681.

With `Cc1ccc(CNCCCNc2ccnc3cc(Cl)ccc23)o1` [SJ000311326], the “percent inhibition (TR-FRET)” value under setting [2] was found to be 10.2048.

With `Clc1ccc2c(NCCCN(Cc3ccccc3)Cc3ccco3)ccnc2c1` [SJ000312668], the “percent inhibition (TR-FRET)” value under setting [2] amounted to 0.5217.

Turning to `Cc1ccc(CN(CCCNc2ccnc3cc(Cl)ccc23)Cc2ccccc2)o1` [SJ000312669], the “percent inhibition (TR-FRET)” value under setting [2] was 2.84.

Regarding `Clc1ccc2c(NCCCN(Cc3ccccc3)Cc3ccc(Br)o3)ccnc2c1` [SJ000312671], the “percent inhibition (TR-FRET)” value under setting [2] is reported as -1.797.

Take `Clc1ccc2c(NCCCN(Cc3ccccc3)Cc3cccs3)ccnc2c1` [SJ000312672]: the “percent inhibition (TR-FRET)” value under setting [2] is reported as 4.744.

With `Cc1ccc(CN(CCCNc2ccnc3cc(Cl)ccc23)Cc2ccccc2)s1` [SJ000312673], under setting [2], the “percent inhibition (TR-FRET)” value came out at 4.629.

Regarding `Clc1ccc2c(NCCCN(Cc3ccccc3)Cc3ccsc3)ccnc2c1` [SJ000312675], the “percent inhibition (TR-FRET)” value under setting [2] was 9.598.

`Clc1ccc2c(NCCCN(Cc3ccccc3)Cc3nccs3)ccnc2c1` [SJ000312676]: the “percent inhibition (TR-FRET)” value under setting [2] is given as -4.148.

`Clc1ccc2c(NCCCN(Cc3ccccc3)Cc3ccccn3)ccnc2c1` [SJ000312678]: the “percent inhibition (TR-FRET)” value under setting [2] is -3.851.

In the case of `Clc1ccc2c(NCCCN(Cc3ccccc3)Cc3ccncc3)ccnc2c1` [SJ000312679], the “percent inhibition (TR-FRET)” value under setting [2] is -5.573.

On to `Clc1ccc2c(NCCCCN(Cc3ccccc3)Cc3ccco3)ccnc2c1` [SJ000312681], for which, under setting [1], the “percent inhibition (TR-FRET)” value worked out at 12.0487.

With `Cc1ccc(CN(CCCCNc2ccnc3cc(Cl)ccc23)Cc2ccccc2)o1` [SJ000312682], the “percent inhibition (TR-FRET)” value under setting [1] was found to be 2.013.

For `Clc1ccc2c(NCCCCN(Cc3ccccc3)Cc3ccc(Br)o3)ccnc2c1` [SJ000312684], the “percent inhibition (TR-FRET)” value under setting [1] was found to be 14.9636.

For `Clc1ccc2c(NCCCCN(Cc3ccccc3)Cc3ccoc3)ccnc2c1` [SJ000312685], under setting [1], the “percent inhibition (TR-FRET)” value amounted to 14.8973.

Take `Clc1ccc2c(NCCCCN(Cc3ccccc3)Cc3cccs3)ccnc2c1` [SJ000312686]: the “percent inhibition (TR-FRET)” value under setting [1] is 25.0481.

Turning to `Cc1ccc(CN(CCCCNc2ccnc3cc(Cl)ccc23)Cc2ccccc2)s1` [SJ000312687], the “percent inhibition (TR-FRET)” value under setting [1] was 20.7072.

`Clc1ccc2c(NCCCCN(Cc3ccccc3)Cc3ccc(Br)s3)ccnc2c1` [SJ000312688]: the “percent inhibition (TR-FRET)” value under setting [1] was determined as 22.0375.

The values above are taken from publication PMC7529893, “Structural basis for substrate recognition and chemical inhibition of oncogenic MAGE ubiquitin ligases” (Nature Communications, 2020).
